Results as given in patent US20140256945A1, “PHOSPHONIC ACID COMPOUNDS AS SPHINGOSINE-1-PHOSPHATE RECEPTOR MODULATORS” (Allergan, Inc., priority 2013, published 2014).

Target: T1, human S1P1 receptor (Homo sapiens, UniProt P21453)
T1 construct: expressed in transfected cells; membranes used
Assay: GTP γ35S binding assay for S1P1 activity
Type: biochemical
Details: membranes of cells stably expressing S1P1 receptor, agonist potency
Method: Compounds were tested for S1P1 activity using the GTP γ^35S binding assay. These compounds may be assessed for their ability to activate or block activation of the human S1P1 receptor in cells stably expressing the S1P1 receptor.
GTP γ^35S binding was measured in the medium containing (mM) HEPES 25, pH 7.4, MgCl2 10, NaCl 100, dithitothreitol 0.5, digitonin 0.003%, 0.2 nM GTP γ^35S, and 5 μg membrane protein in a volume of 150 μl. Test compounds were included in the concentration range from 0.08 to 5,000 nM unless indicated otherwise. Membranes were incubated with 100 μM 5′-adenylylimmidodiphosphate for 30 min, and subsequently with 10 μM GDP for 10 min on ice. Drug solutions and membrane were mixed, and then reactions were initiated by adding GTP γ^35S and continued for 30 min at 25° C. Reaction mixtures were filtered over Whatman GF/B filters under vacuum, and washed three times with 3 mL of ice-cold buffer (HEPES 25, pH7.4, MgCl2 10 and NaCl 100). Filters were dried and mixed with scintillant, and counted for ^35S activity using a β-counter. Agonist-induced GTP γ^35S binding was obtained by subtracting that in the absence of agonist. Binding data were analyzed using a non-linear regression method. In case of antagonist assay, the reaction mixture contained 10 nM S1P in the presence of test antagonist at concentrations ranging from 0.08 to 5000 nM.

T1 sequence (P21453 whole entry): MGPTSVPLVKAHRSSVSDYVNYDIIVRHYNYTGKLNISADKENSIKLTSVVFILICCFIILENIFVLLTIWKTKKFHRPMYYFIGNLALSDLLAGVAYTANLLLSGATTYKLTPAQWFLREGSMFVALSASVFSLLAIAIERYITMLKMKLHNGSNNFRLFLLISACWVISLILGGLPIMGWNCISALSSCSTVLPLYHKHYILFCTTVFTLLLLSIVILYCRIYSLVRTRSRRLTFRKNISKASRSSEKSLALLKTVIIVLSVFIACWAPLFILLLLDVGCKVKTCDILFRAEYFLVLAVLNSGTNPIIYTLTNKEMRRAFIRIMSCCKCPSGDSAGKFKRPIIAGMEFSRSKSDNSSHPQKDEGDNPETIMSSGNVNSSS

Compound | EC50 [nM]
O=P(O)(O)CCCNCc1ccc(C#CCCCCc2ccccc2)c(F)c1 [Compound 1, (3-{[3-fluoro-4-(6-phenylhex-1-yn-1-yl)benzyl]amino}propyl)phosphonic acid] | 4.3
Cc1cc(CNCCCP(=O)(O)O)ccc1C#CCCCCc1ccccc1 [Compound 2, (3-{[3-methyl-4-(6-phenylhex-1-yn-1-yl)benzyl]amino}propyl)phosphonic acid] | 3.4
O=P(O)(O)CCCNCc1ccc(C#CCCCCc2ccccc2)cc1 [Compound 3, (3-{[4-(6-phenylhex-1-yn-1-yl)benzyl]amino}propyl)phosphonic acid] | 26.7
O=P(O)(O)CCCNCc1ccc(C#CCCCCc2ccccc2)c(Br)c1 [Compound 4, (3-{[3-bromo-4-(6-phenylhex-1-yn-1-yl)benzyl]amino}propyl)phosphonic acid] | 22.1
O=P(O)(O)CCCNCc1ccc(CCCCCCc2ccccc2)c(F)c1 [Compound 5, (3-{[3-fluoro-4-(6-phenylhexyl)benzyl]amino}propyl)phosphonic acid] | 4.2
Cc1cc(CNCCCP(=O)(O)O)ccc1CCCCCCc1ccccc1 [Compound 6, (3-{[3-methyl-4-(6-phenylhexyl)benzyl]amino}propyl)phosphonic acid] | 0.7
O=P(O)(O)CCCNCc1ccc(CCCCCCc2ccccc2)c(C(F)(F)F)c1 [Compound 7, (3-{[4-(6-phenylhexyl)-3-(trifluoromethyl)benzyl]amino}propyl)phosphonic acid] | 11.2
O=P(O)(O)CCCNCc1ccc(CCCCCCc2ccccc2)c(Cl)c1 [Compound 8, (3-{[3-chloro-4-(6-phenylhexyl)benzyl]amino}propyl)phosphonic acid] | 0.5
O=P(O)(O)CCCNCc1ccc(CCCCCCc2ccccc2)cc1 [Compound 9, (3-{[4-(6-phenylhexyl)benzyl]amino}propyl)phosphonic acid] | 6.8
O=P(O)(O)CCCNCc1cc(F)c(CCCCCCc2ccccc2)cc1F [Compound 10, (3-{[2,5-difluoro-4-(6-phenylhexyl)benzyl]amino}propyl)phosphonic acid] | 1.9
O=C(CCCCc1ccccc1)Nc1ccc(CNCCCP(=O)(O)O)cc1Br [Compound 11, [3-({3-bromo-4-[(5-phenylpentanoyl)amino]benzyl}amino)propyl]phosphonic acid] | 105
O=P(O)(O)CCCNCc1ccc(NCCCCCc2ccccc2)c(Br)c1 [Compound 12, [3-({3-bromo-4-[(5-phenylpentyl)amino]benzyl}amino)propyl]phosphonic acid] | 4.1

Test system: blood lymphocytes
Assay: Lymphopenia Assay in Mice
Type: in vivo
Details: female C57BL6 mice, 0.5 mg/Kg subcutaneous, after 5 hours
Method: Test drugs are prepared in a solution containing 3% (w/v) 2-hydroxy propyl β-cyclodextrin (HPBCD) and 1% DMSO to a final concentration of 1 mg/ml, and subcutaneously injected to female C57BL6 mice (CHARLES RIVERS) weighing 20-25 g at the dose of 0.5 to 10 mg/Kg. Blood samples are obtained by puncturing the submandibular skin with a Goldenrod animal lancet at 5, 24, 48, and 72 hrs post drug application. Blood is collected into microvettes (SARSTEDT) containing EDTA tripotassium salt. Lymphocytes in blood samples are counted using a HEMAVET Multispecies Hematology System, HEMAVET HV950FS (Drew Scientific Inc.). • (Hale, J. et al Bioorg.& Med. Chem. Lett. 14 (2004) 3351).
A lymphopenia assay in mice; as previously described, was employed to measure the in vivo blood lymphocyte depletion after dosing with the test compound (3-{[2,5-difluoro-4-(6-phenylhexyl)benzyl]amino}propyl)phosphonic acid Compound-10. This S1P1 modulator, (3-{[2,5-difluoro-4-(6-phenylhexyl)benzyl]amino}propyl)phosphonic acid Compound-10 is useful for S1P-related diseases and exemplified by the lymphopenia in vivo response. […] Lymphocytes in blood samples were counted using a HEMAVET Multispecies Hematology System, HEMAVET HV950FS (Drew Scientific Inc.). […]

Compound | lymphocyte count (number of lymphocytes)
O=P(O)(O)CCCNCc1cc(F)c(CCCCCCc2ccccc2)cc1F [Compound 10, (3-{[2,5-difluoro-4-(6-phenylhexyl)benzyl]amino}propyl)phosphonic acid] | < 1 10^3/μL blood

Same assay, conditions: mice, 0.5 mg/kg, 5, 24, 48, 72 hours (FIG. 1)

Compound | Lymphopenia
O=P(O)(O)CCCNCc1cc(F)c(CCCCCCc2ccccc2)cc1F [Compound 10, (3-{[2,5-difluoro-4-(6-phenylhexyl)benzyl]amino}propyl)phosphonic acid] | Lymphopenia was induced
